According to ChEMBL document CHEMBL3044887, “The antifungal activity of widdrol and its biotransformation by Colletotrichum gloeosporioides (penz.) Penz. & Sacc. and Botrytis cinerea Pers.: Fr” (2006):
Calls of active or inactive are those of the source. The calls are words filed in the database; no cut-off is given here.

Experiments:
Botrytis cinerea [1] = experiment: Antifungal activity against Botryotinia fuckeliana 2100 assessed as inhibition of mycelial growth at 100 ppm measured after 6 days; assay type: functional
Botrytis cinerea [2] = experiment: Antifungal activity against Botryotinia fuckeliana 2100 assessed as inhibition of mycelial growth at 200 ppm measured after 6 days; assay type: functional; conditions: Botrytis cinerea, 2100, 144 h; read-out: GI
[3] = system: Colletotrichum gloeosporioides; experiment: Antifungal activity against Colletotrichum gloeosporioides 20122 assessed as inhibition of mycelial growth at => 100 ppm measured after 24 to 144 hr; assay type: functional, organism-based

## C[C@@]1(O)CC=C2[C@@](C)(CCC[C@@]2(C)CO)CC1
Botrytis cinerea [1]
  growth inhibition (GI): inactive

## CC1(C)C2=CC[C@@](C)(O)CC[C@]2(C)CC[C@H]1O
Botrytis cinerea [1]
  growth inhibition (GI): inactive

## CC1(C)C2=CC[C@@](C)(O)CC[C@]2(C)CC[C@@H]1O
Botrytis cinerea [1]
  growth inhibition (GI): inactive

## CC1(C)CCC[C@@]2(C)CC[C@](C)(O)CC=C12 [WIDDROL]
Botrytis cinerea [2]
  inhibition of growth at 200 ppm: 70.7%
Botrytis cinerea [1]; Botrytis cinerea, 2100, 144 h, read-out: GI
  inhibition of growth at 100 ppm: 60%
[3]
  growth inhibition (GI): inactive

## CC1(C)C(=O)CC[C@@]2(C)CC[C@](C)(O)CC=C12
Botrytis cinerea [1]
  growth inhibition (GI): inactive

## CC1(C)CC[C@@H]2O[C@]13[C@H](O)C[C@@](C)(O)CC[C@]23C
Botrytis cinerea [1]
  growth inhibition (GI): inactive
